The record followed here is ChEMBL document CHEMBL1146276, “Development of a novel therapeutic suppressor of brain proinflammatory cytokine up-regulation that attenuates synaptic dysfunction and behavioral deficits” (Bioorg Med Chem Lett, 2007).

Data set [1] can be described thus: Inhibition of IL1 beta production in glia cells. Type of data set: functional, cell-based. The settings on record: Homo sapiens.
Data set [2] is described as follows: Partition coefficient, log P of the compound. Type of data set: physicochemical. The conditions noted are these: octanol/water.
Data set [3] in a line: Chemical stability in water. Type of data set: physicochemical. The conditions noted are these: buffer.
The nature of data set [4]: Chemical stability in hydrogen peroxide upto 48 hrs. Type of data set: physicochemical. The conditions noted are these: read-out: Stability.
Data set [5] in a line: Chemical stability in dilute base after 5 days. The format is physicochemical. The conditions noted are these: read-out: Stability.
Data set [6] is described as follows: Aqueous solubility of the compound. Type of data set: physicochemical. The settings on record: buffer.
The subject of another data set is Cavia porcellus. The data set is described as follows: Cardiotoxicity in guinea pig assessed as prolongation of QTc interval at 15 mg/kg, po. Type of data set: toxicity, organism-based. On the set-up: dose 15 mg/kg, route oral. The settings on record: in vivo.
A short description of data set [7]: Brain penetration, LogBB of the compound. The format is ADME. The settings on record: read-out: logBB (converted).
The next data set is filed under the species Homo sapiens. The data set is described as follows: Suppression of proinflammatory cytokine production in glia cells. Type of data set: functional, cell-based.
For data set [8], the system named is Mus musculus. The data set is described as follows: Suppression of IL1-beta production in human amyloid-beta induced mouse injury model at […], po for 2 weeks after 60 days of injury. On the set-up: dose 2.5 mg/kg. Type of data set: functional, organism-based.
For data set [9], the system named is Mus musculus. The data set is described as follows: Suppression of TNFalpha production in human amyloid-beta induced mouse injury model at […], po for 2 weeks after 60 days of injury. Type of data set: functional, organism-based. Also on record: dose 2.5 mg/kg.
For data set [10], the system named is Mus musculus. The data set is described as follows: Suppression of S100B production in human amyloid-beta induced mouse injury model at […], po for 2 weeks after 60 days of injury. The format is functional, organism-based. On the set-up: dose 2.5 mg/kg.
The test system of data set [11] is Mus musculus. As to the kind of experiment: Reduction of GFAP-positive astrocytes in human amyloid-beta induced mouse injury model at […], po for 2 weeks after 60 days of injury. The format is functional, organism-based. On the set-up: dose 2.5 mg/kg.
Data set [12] has as its system Mus musculus. The data set is described as follows: Reduction of F4/80 positive microglia in human amyloid-beta induced mouse injury model at […], po for 2 weeks after 60 days of injury. Also on record: dose 2.5 mg/kg. Type of data set: functional, organism-based.
The species named for data set [13] is Mus musculus. As to the kind of experiment: Prevention of loss of synaptic protein synaptophytsin in human amyloid-beta induced mouse injury model. Type of data set: functional, organism-based.
The species named for data set [14] is Mus musculus. The data set is described as follows: Prevention of loss of synaptic protein PSD95 in human amyloid-beta induced mouse injury model. Type of data set: functional, organism-based.
The species named for data set [15] is Mus musculus. As to the kind of experiment: Attenuation of hippocampal dependent behavioral deficits in mouse by Y maze test. Type of data set: functional, organism-based. The conditions noted are these: Hippocampus.

Converted amounts (≈) assume the structure as drawn. The source made the active and inactive calls. The calls are words filed in the database; no cut-off is given here.

One may read the IC50 as the concentration that inhibits the measured activity by half. Low readings indicate inhibition by little substance, high ones a need for much substance. For the compound `Cc1cc(-c2ccccc2)nnc1N1CCN(c2ccccc2)CC1`, the midpoint of inhibition in data set [1], the IC50, lay at 15.5 µM.
As a reminder, the logP is a log measure of how a compound divides between an organic and an aqueous phase. Higher therefore signals a more lipophilic compound. Compound `Cc1cc(-c2ccccc2)nnc1N1CCN(c2ncccn2)CC1.Cl.O` gave a logP in data set [2] of 2.3. The same compound came in with a Stability in data set [3] of under 5%. Further, the remaining at 48 h in [4] is under 10%. Also, in data set [5], the remaining at 120 h was 53%.
As to `Cc1cc(-c2ccccc2)nnc1N1CCN(c2cnccn2)CC1`, the IC50 in data set [1] worked out at 46.1 µM.
Broadly, the Solubility is how much of the substance goes into solution per volume. In data set [6], `c1ccc(-c2cc(-c3ccccc3)c(N3CCN(c4ncccn4)CC3)nn2)cc1` [listing 1 of 2 here] displayed a Solubility of under 2 ng/mL.
The compound `Cc1cc(-c2ccccc2)nnc1N1CCN(c2ncccn2)CC1` [MINOZAC FREE BASE] yielded an IC50 in data set [1] of 8.3 µM. In data set [6], the Solubility was 16 ng/mL (≈ 0.0481 µM). The Activity entry in the data set on Cavia porcellus is “Non-toxic”. Moreover, the Kp in data set [7] is 2.82.
In data set [2], `c1ccc(-c2cc(-c3ccccc3)c(N3CCN(c4ncccn4)CC3)nn2)cc1` [listing 2 of 2 here] registered a log partition coefficient (logP) of 2.7.
On to `Cc1cc(-c2ccccc2)nnc1N1CCN(C2CCCCC2)CC1`, for which, in data set [1], half-maximal inhibition (IC50) required 31.4 µM.
The same measure, in the same setting: the result for `Cc1cc(-c2ccccc2)nnc1N1CCN(C)CC1` reads 48.9 µM.
Regarding `Cc1cc(-c2ccccc2)nnc1NCCN1CCOCC1`, in the data set filed under Homo sapiens, the outcome was inactive.
`Clc1cc(-c2ccccc2)nnc1N1CCN(c2ncccn2)CC1` showed an IC50 in data set [1] of 9.5 µM.
On to `Cc1cc(-c2ccccc2)nnc1N1CCN(c2ncccn2)CC1`, for which the result in the data set with Mus musculus [8], in the data set with Mus musculus [9], in the data set with Mus musculus [10], in the data set with Mus musculus [11], with Mus musculus [12] and in the data set listed under Mus musculus [13] was Active. The outcome in the data set filed under Mus musculus [14] and in the data set filed under Mus musculus [15] was Active.
